Experimental data reported in patent publication US20260137807A1, “COMPOSITIONS AND METHODS FOR DELIVERING A MACROMOLECULE TO A CELL” (AstraZeneca AB, priority 2022, published 2026).

Tested on: different cell lines (mCherry-GAL9)
Experiment: mCherry-GAL9 response between different cell lines
Type: cell-based
Conditions: 0.31 to 10 μM, 2 hours post-dosing, FIG. 41 and 48
Procedure: All of the stable cell lines generated from HeLa and Huh7 cells were maintained and cultivated in Dulbecco's modified Eagle's medium (DMEM) with high glucose with GlutaMAX (Gibco, cat. no. 31966-021), 10% fetal bovine serum (gibco, cat. no. 10270-106), and 1% penicillin-streptomycin (gibco, cat. no. 15140-122) at 37° C., 5% CO2 in 95% humidity in T75 TC flask (Sarstedt, 83.3911.002). The cells were detached (trypsin 0.25% EDTA, 10 min) and passaged twice a week. HEK293 and HeLa, HepG2, Huh7 and U2OS mCherry-GAL9 cell lines were maintained in DMEM, NCI-H358 mCherry-GAL9 were maintained in RPMI (Gibco: 32430-027) and SH-SY5Y mCherry-GAL9 were maintained in DMEM/F12 (Gibco: 32430-027). All growth media was supplemented with 10% FBS and 1 μg/ml Puromycin (Gibco: A11138-03) to maintain reporter expression. All cells were routinely tested and mycoplasma negative.
HeLa and Huh7 cells were further submitted to the mCherry-GAL9-recruitment analysis with treatment with select compounds and observed for endosomal rupture at various time points (1 hour, 2 hours, and 16 hours). GAL9 response results at different doses (1.25-5 μM) of the selected compounds are shown in FIG. 33 (Huh7 cells) and FIG. 34 (HeLa cells). […] FIG. 40 further provides additional results comparing time (0.25 to 4 hours), dose of select compounds (0.31 to 10 μM) and GAL9 response in Huh7 cells. […]

## COc1nn(C2CCNCC2)cc1Nc1ncc(F)c(-n2ccc3c(C#N)cccc32)n1 [Compound 4]
  GAL9 response between different cell lines: GAL9 responses across multiple cell lines of diverse background origins
